Laboratory results reported in PMC11391541, “Target-Directed Dynamic Combinatorial Chemistry Affords Binders of Mycobacterium tuberculosis IspE” (ACS Omega, 2024).
Converted amounts (≈) assume the structure as drawn. “And” between values parts separate entries of the source, which are not always exact repeats. Identical values can stand only once.

Key:
[1] = solubility in M. tuberculosis 7H9 growth medium; format: physicochemical; conditions: M. tuberculosis 7H9 growth medium, plasma or biological fluid, kinetic from dmso stock; Mtb 7H9 growth medium
Description: Prior to biological evaluation of the tdDCC hits, we tested their solubility in a standard buffer as well as in M. tuberculosis 7H9 growth medium. […] Regrettably, with 3.3 μM the least soluble compound is E1, making our most amplified and promising compound unsuitable for biological evaluation. We assessed the solubility in Mtb growth medium given that it is a complex, nutrient-rich environment with a distinct solubility profile. However, the trend continued, only seven hits are soluble at 8 μM or above, the remaining five compounds, including E1, were not eligible for antitubercular activity testing (Table 1).
Determination of in vitro anti-tubercular activity and solubility in 7H9 medium Anti-tubercular tests were performed as previously described .1 In brief, 7H9 complete medium (BD Difco; Becton Dickinson, Maryland,USA) supplemented with 10% OADC (BD), 0.2% glycerol, and 0.05% Tween80 as previously described ,3 was used to culture Mycobacterium tuberculosis (Mtb) strain H37Rv (ATCC 25618) carrying a mCherry -expressing plasmid (pCherry10 ).4 Cultures were harvested at mid-log phase and frozen in aliquots at – 80 °C. Prior to testing aliquots were thawed followed by centrifugation and the pellet was resuspended in 7H9 medium with 10% OADC (without glycerol and Tween80). This was further thoroughly resuspended by passing it through a syringe with a 26 -gauge needle to avoid clumping of the bacteria. 2×10^5 CFU (colony forming units) were then cultured in a total volume of 100 μl culture medium (triplicates) to test the non-precipitating compounds for the anti-tubercular activity at the concentrations indicated. For these assays, 96-well flat clear bottom black polystyrene microplates (Corning® CellBIND®, Merck, New York, USA) wer e used. Each plate had Rifampicin (at 1 μg/ml and 0.1 μg/ml) (National Reference Center, Borstel) as a reference compound. Plates were sealed with an air -permeable membrane (Porvair Sciences, Wrexham, UK) in a 37 °C incubator with mild agitation (TiMix5, Edmund Bühler, Germany). The activity of compounds was determined after 7 days by measuring the bacterial growth as relative light units (RLU) from the fluorescence intensity obtained at an excitation wavelength of 575 nm and an emission wavelength of 635 n m in a microplate reader (Synergy 2, BioTek Instruments, Vermont, USA). Two independent experiments (each in triplicates) were performed, and all values were normalized to untreated control sample (100%) in each experiment.
To obtain information regarding the toxicity of our compounds, their impact on the viability of human cells was investigated. HepG2 cells (2x10^4 cells per well) were seeded in 96 -well, flat-bottomed culture plates in 100 µL culture medium (DMEM containing 10% fetal calve serum, 1% penicillin -streptomycin). Twenty-four hours after seeding the cells, medium was removed and replaced by medium containing test compounds in a final DMSO concentration of 1%. Compounds were tested in duplicates at a single concentration or, for CC50 determination, at 8 concentrations that were prepared via 2 -fold serial dilutions in 1% DMSO/medium. Epirubicin and doxorubicin were used as positive controls in serial dilutions starting from 10 µM, and rifampicin was used as a negative control (at 100 µM). The living cell mass was determined 48 h after treatment with compounds by adding 0.1 volumes of 3 -(4,5-dimethylthiazol-2-yl)-2,5-diphenyltetrazolium bromide (MTT) solution (5 mg/mL sterile PBS) (Sigma, St. Louis, MO) to the wells. After incubating the cells for 30 min at 37 °C (atmosphere containing 5% CO2), medium was removed and MTT crystals were dissolved in 75 µL of a solution containing 10% SDS and 0.5% acetic acid in DMSO. The optical density (OD) of the samples was determined photometrically at 570 nm in a PHERAstar Omega plate reader (BMG labtech, Ortenberg, Germany). To obtain percent viability for each sample, their ODs were related to those of DMSO controls. […]

MtbIspE [2] = target: T1, MtbIspE (Mycobacterium tuberculosis, UniProt P9WKG7); assay: MtbIspE binding study via MicroScale Thermophoresis (MST); conditions: for MtbIspE binding at 20 μM: MST, 20 μM ligand, 200 nM MtbIspE, triplicate, qualitative
MtbIspE [3] = target: T1, MtbIspE; assay: MtbIspE binding study via thermal shift assay; conditions: read-out: MtbIspE ΔTm at 20 μM
MtbH37Rv = format: cell-based, Mycobacterium tuberculosis
EcTolC = assay: microbe, parasite or virus in culture; format: cell-based; conditions: Escherichia coli, 18 h, LB medium, read-out: EcTolC %inh. At 50 μM
EcK12 = assay: E. coli growth inhibition, wild-type strain K12; format: cell-based, Escherichia coli; conditions: 18 h, LB medium; for inhibition at 50 µM: Escherichia coli, read-out: EcK12 %inh. At 50 μM
fungi = test system: fungi; set-up: method as in PMID 25943854; conditions: cited from earlier work
physchem = conditions: aqueous with cosolvent or surfactant or cyclodextrin, kinetic from dmso stock, solubility 5% DMSO in PBS
in vitro = conditions: human, HepG2 CC50, HepG2, 48 h, MTT

T1 sequence (P9WKG7 whole entry): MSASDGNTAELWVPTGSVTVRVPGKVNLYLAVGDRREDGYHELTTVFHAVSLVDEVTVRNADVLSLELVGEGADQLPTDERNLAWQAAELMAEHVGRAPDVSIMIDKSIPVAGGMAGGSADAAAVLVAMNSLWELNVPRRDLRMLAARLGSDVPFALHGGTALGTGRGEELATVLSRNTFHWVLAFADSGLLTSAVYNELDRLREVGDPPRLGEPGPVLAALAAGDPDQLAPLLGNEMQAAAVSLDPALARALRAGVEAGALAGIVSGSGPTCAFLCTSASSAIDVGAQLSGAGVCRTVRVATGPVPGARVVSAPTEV

Which solubility [1] does the source give for `O=C(N/N=C/c1cc(Cl)ccc1O)c1ccncc1` [L1, (E)-N′-(5-Chloro-2-hydroxybenzylidene)isonicotinohydrazide] here?
The solubility was 16 µM.

What about the “MtbIspE binding at 20 μM” value (MtbIspE [2]) of the same compound?
Its value is “did not bind and No”.

What about the “MtbIspE binding in saturation MST experiment” value (MtbIspE [2]; saturation MST experiment) of the same compound?
Its value is “no binding”.

What about the ΔTm at 20 µM (MtbIspE [3]) of the same compound?
The ΔTm at 20 µM was under 0.3 °C.

And the “MtbH37Rv MIC90” value (MtbH37Rv)?
The value was “no inh. at max. sol”.

What about the inhibition at 50 µM (EcTolC) of the same compound?
Its inhibition at 50 µM is 52 ± 3%.

What about the “EcK12 %inh. At 50 μM” value (EcK12) of the same compound?
Its value is “appreciable effect”.

What about the inhibition at 50 µM (EcK12) of the same compound?
Its inhibition at 50 µM is 18 ± 6%.

And the antifungal properties (fungi)?
Its antifungal properties is “antifungal properties”.

What about the solubility at 5 min (physchem) of the same compound?
Its solubility at 5 min is 108 ± 3 µM (≈ 29.8 µg/mL).

What about the CC50 (in vitro) of the same compound?
The CC50 was about 50 µM.

With `COc1ccc(-c2cc(/C=N/NC(=O)c3cc(CC(C)C)n[nH]3)no2)cc1` [D6, (E)-3-Isobutyl-N′-((5-(4-methoxyphenyl)isoxazol-3-yl)methylene)-1H-pyrazole-5-carbohydrazide] as the compound, how does the solubility [1] read?
Its solubility is 16 µM.

What about the “MtbIspE binding at 20 μM” value (MtbIspE [2]) of the same compound?
The value was “No”.

What about the ΔTm at 20 µM (MtbIspE [3]) of the same compound?
The ΔTm at 20 µM was under 0.3 °C.

What about the “MtbH37Rv MIC90” value (MtbH37Rv) of the same compound?
The value was “no inh. at max. sol”.

And the inhibition at 50 µM (EcTolC)?
The inhibition at 50 µM was 39 ± 6%.

What about the inhibition at 50 µM (EcK12) of the same compound?
Its inhibition at 50 µM is under 10%.

What about the solubility at 5 min (physchem) of the same compound?
The solubility at 5 min was 20 ± 10 µM (≈ 7.35 µg/mL).

What about the CC50 (in vitro) of the same compound?
The CC50 was over 50 µM.

Which solubility [1] does the source give for `O=C(N/N=C/c1ccc(C(F)(F)F)cc1)c1cccc(Cl)c1` [K4, (E)-3-Chloro-N′-(4-(trifluoromethyl)benzylidene)benzohydrazide] here?
The solubility was 8 µM.

And the “MtbIspE binding at 20 μM” value (MtbIspE [2])?
The value was “binding in only one measurement and 1/3”.

And the ΔTm at 20 µM (MtbIspE [3])?
Its ΔTm at 20 µM is 0.7 °C.

What about the “MtbH37Rv MIC90” value (MtbH37Rv) of the same compound?
Its value is “no inh. at max. sol”.

And the inhibition at 50 µM (EcTolC)?
The inhibition at 50 µM was 38 ± 4%.

What about the inhibition at 50 µM (EcK12) of the same compound?
Its inhibition at 50 µM is 12 ± 4%.

What about the solubility at 5 min (physchem) of the same compound?
Its solubility at 5 min is 21 ± 6 µM (≈ 6.86 µg/mL).

And the CC50 (in vitro)?
Its CC50 is over 50 µM.
